PubChem BioAssay (NCI)
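Interpolation was linear, between the two tested concentrations surrounding the appropriate level; five concentrations were tested over 48 hours in 96-well plates. GI50 marks 50% less growth. The concentration for full growth arrest is given as TGI.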

What was measured:
Assay in all cases: inhibition of tumour cell growth, NCI panel, 48 h
786-0 renal = test system: 786-0 renal
A498 renal = test system: A498 renal
A549 NSCLC = test system: A549 NSCLC
ACHN renal = test system: ACHN renal
BT-549 breast = test system: BT-549 breast
CAKI-1 renal = test system: CAKI-1 renal
CCRF-CEM leukemia = test system: CCRF-CEM leukemia
COLO 205 colon = test system: COLO 205 colon
DU-145 prostate = test system: DU-145 prostate
EKVX NSCLC = test system: EKVX NSCLC
HCC-2998 colon = test system: HCC-2998 colon
HCT-116 colon = test system: HCT-116 colon
HCT-15 colon = test system: HCT-15 colon
HL-60(TB) leukemia = test system: HL-60(TB) leukemia
HOP-62 NSCLC = test system: HOP-62 NSCLC
HOP-92 NSCLC = test system: HOP-92 NSCLC
HS 578T breast = test system: HS 578T breast
HT29 colon = test system: HT29 colon
IGROV1 ovarian = test system: IGROV1 ovarian
K-562 leukemia = test system: K-562 leukemia
KM12 colon = test system: KM12 colon
LOX IMVI melanoma = test system: LOX IMVI melanoma
M14 melanoma = test system: M14 melanoma
MALME-3M melanoma = test system: MALME-3M melanoma
MCF7 breast = test system: MCF7 breast
MDA-MB-231 breast = test system: MDA-MB-231 breast
MDA-MB-435 = test system: MDA-MB-435
MOLT-4 leukemia = test system: MOLT-4 leukemia
NCI-H23 lung = test system: NCI-H23 lung
NCI-H460 lung = test system: NCI-H460 lung
NCI-H522 lung = test system: NCI-H522 lung
NCI/ADR-RES ovarian = test system: NCI/ADR-RES ovarian
OVCAR-3 ovarian = test system: OVCAR-3 ovarian
OVCAR-4 ovarian = test system: OVCAR-4 ovarian
OVCAR-5 ovarian = test system: OVCAR-5 ovarian
OVCAR-8 ovarian = test system: OVCAR-8 ovarian
PC-3 prostate = test system: PC-3 prostate
RPMI-8226 leukemia = test system: RPMI-8226 leukemia
RXF 393 renal = test system: RXF 393 renal
SF-268 CNS = test system: SF-268 CNS
SF-295 CNS = test system: SF-295 CNS
SF-539 CNS = test system: SF-539 CNS
SK-MEL-2 melanoma = test system: SK-MEL-2 melanoma
SK-MEL-28 melanoma = test system: SK-MEL-28 melanoma
SK-MEL-5 melanoma = test system: SK-MEL-5 melanoma
SK-OV-3 ovarian = test system: SK-OV-3 ovarian
SN12C renal = test system: SN12C renal
SNB-19 CNS = test system: SNB-19 CNS
SNB-75 CNS = test system: SNB-75 CNS
SR leukemia = test system: SR leukemia
SW-620 colon = test system: SW-620 colon
T-47D breast = test system: T-47D breast
TK-10 renal = test system: TK-10 renal
U251 CNS = test system: U251 CNS
UACC-257 melanoma = test system: UACC-257 melanoma
UACC-62 melanoma = test system: UACC-62 melanoma
UO-31 renal = test system: UO-31 renal

## O=C1CCC/C=C\C[C@H]2C=CC(=O)/C2=C/C[C@H](CCc2cccc(C(F)(F)F)c2)O1
786-0 renal
  GI50: 1.99 µM
  TGI: 3.68 µM
A498 renal
  GI50: 1.68 µM
  TGI: 3.22 µM
A549 NSCLC
  GI50: 2.31 µM
  TGI: 5.56 µM
ACHN renal
  GI50: 1.19 µM
  TGI: 2.6 µM
BT-549 breast
  GI50: 2.57 µM
  TGI: 7.99 µM
CAKI-1 renal
  GI50: 4.04 µM
  TGI: 16 µM
CCRF-CEM leukemia
  GI50: 0.397 µM
  TGI: 11.4 µM
COLO 205 colon
  GI50: 1.58 µM
  TGI: 4.16 µM
DU-145 prostate
  GI50: 1.66 µM
  TGI: 4.58 µM
EKVX NSCLC
  GI50: 1.94 µM
  TGI: 4.08 µM
HCC-2998 colon
  GI50: 2.01 µM
  TGI: 3.54 µM
HCT-116 colon
  GI50: 0.327 µM
  TGI: 1.48 µM
HCT-15 colon
  GI50: 1.23 µM
  TGI: 4.07 µM
HL-60(TB) leukemia
  GI50: 2.1 µM
  TGI: 6.88 µM
HOP-62 NSCLC
  GI50: 2.84 µM
  TGI: 6.83 µM
HOP-92 NSCLC
  GI50: 2.29 µM
  TGI: 4.77 µM
HS 578T breast
  GI50: 4.78 µM
  TGI: 56.7 µM
HT29 colon
  GI50: 1.11 µM
  TGI: 3.39 µM
IGROV1 ovarian
  GI50: 3.06 µM
  TGI: 9.53 µM
K-562 leukemia
  GI50: 0.692 µM
  TGI: 6.44 µM
KM12 colon
  GI50: 1.64 µM
  TGI: 3.35 µM
LOX IMVI melanoma
  GI50: 0.44 µM
  TGI: 1.82 µM
M14 melanoma
  GI50: 1.76 µM
  TGI: 5.32 µM
MALME-3M melanoma
  GI50: 2.25 µM
  TGI: 7.1 µM
MCF7 breast
  GI50: 0.287 µM
  TGI: 2.58 µM
MDA-MB-231 breast
  GI50: 4.41 µM
  TGI: 18.2 µM
MDA-MB-435
  GI50: 0.462 µM
  TGI: 2.7 µM
MOLT-4 leukemia
  GI50: 2.14 µM
  TGI: 6.26 µM
NCI-H23 lung
  GI50: 2.16 µM
  TGI: 5.89 µM
NCI-H460 lung
  GI50: 3.18 µM
  TGI: 10.1 µM
NCI-H522 lung
  GI50: 1.23 µM
  TGI: 3.77 µM
NCI/ADR-RES ovarian
  GI50: 0.748 µM
  TGI: 11.3 µM
OVCAR-3 ovarian
  GI50: 1.46 µM
  TGI: 3.23 µM
OVCAR-4 ovarian
  GI50: 3.78 µM
  TGI: 15.9 µM
OVCAR-5 ovarian
  GI50: 4.05 µM
  TGI: 11.3 µM
OVCAR-8 ovarian
  GI50: 0.495 µM
  TGI: 5.64 µM
PC-3 prostate
  GI50: 1.79 µM
  TGI: 4.74 µM
RPMI-8226 leukemia
  GI50: 0.628 µM
  TGI: 6.73 µM
RXF 393 renal
  GI50: 1.66 µM
  TGI: 3.08 µM
SF-268 CNS
  GI50: 2.77 µM
  TGI: 8.3 µM
SF-295 CNS
  GI50: 2.15 µM
  TGI: 4.83 µM
SF-539 CNS
  GI50: 2.61 µM
  TGI: 6.81 µM
SK-MEL-2 melanoma
  GI50: 2.06 µM
  TGI: 4.94 µM
SK-MEL-28 melanoma
  GI50: 2.56 µM
  TGI: 6.75 µM
SK-MEL-5 melanoma
  GI50: 1.69 µM
  TGI: 3.09 µM
SK-OV-3 ovarian
  GI50: 2.92 µM
  TGI: 7.75 µM
SN12C renal
  GI50: 3.66 µM
  TGI: 12.9 µM
SNB-19 CNS
  GI50: 2.22 µM
  TGI: 7.04 µM
SNB-75 CNS
  GI50: 2.02 µM
  TGI: 5.21 µM
SR leukemia
  GI50: 0.627 µM
  TGI: 5.62 µM
SW-620 colon
  GI50: 2.87 µM
  TGI: 9.06 µM
T-47D breast
  GI50: 1.78 µM
  TGI: 7.12 µM
TK-10 renal
  GI50: 2.66 µM
  TGI: 5.19 µM
U251 CNS
  GI50: 1.26 µM
  TGI: 2.85 µM
UACC-257 melanoma
  GI50: 2.11 µM
  TGI: 5.18 µM
UACC-62 melanoma
  GI50: 2.34 µM
  TGI: 7.52 µM
UO-31 renal
  GI50: 1.57 µM
  TGI: 3 µM
